Test results reported in patent US7928231B2, “Thienopyrazoles” (priority 2003, dated 2011).
pIC50: −log10 of the molar value.

Assays:
[1] = target: T1, ITK (Homo sapiens, UniProt Q08881); experiment: FlashPlate ITK protocol for ITK inhibition determination (ITK autophosphorylation, [γ-33P]ATP); assay type: biochemical; conditions: MBP-tagged ITK, read-out: IC50 (enzyme inhibition)-
T1 construct: made in house
T1 sequence (Q08881 1-620): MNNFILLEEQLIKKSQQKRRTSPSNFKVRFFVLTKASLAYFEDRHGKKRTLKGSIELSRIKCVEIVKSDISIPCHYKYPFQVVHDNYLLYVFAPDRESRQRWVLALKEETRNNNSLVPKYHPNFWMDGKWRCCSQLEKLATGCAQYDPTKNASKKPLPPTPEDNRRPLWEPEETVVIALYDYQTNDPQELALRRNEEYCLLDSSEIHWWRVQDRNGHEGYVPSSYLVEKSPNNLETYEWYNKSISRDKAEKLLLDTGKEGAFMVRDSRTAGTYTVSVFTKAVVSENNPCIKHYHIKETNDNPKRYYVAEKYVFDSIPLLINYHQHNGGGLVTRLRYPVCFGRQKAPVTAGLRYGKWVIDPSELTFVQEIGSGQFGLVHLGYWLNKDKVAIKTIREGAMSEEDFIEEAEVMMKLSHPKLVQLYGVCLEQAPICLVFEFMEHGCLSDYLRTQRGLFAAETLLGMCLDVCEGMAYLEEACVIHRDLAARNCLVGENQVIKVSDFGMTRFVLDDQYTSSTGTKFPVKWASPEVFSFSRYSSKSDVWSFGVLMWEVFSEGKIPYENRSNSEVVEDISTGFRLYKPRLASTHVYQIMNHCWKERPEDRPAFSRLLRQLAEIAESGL
Experimental: ITK kinase is produced with an N-terminal Maltose Binding Protein tag (MW=˜114 kDa) using a Baculovirus expression system. The transfer of radioactive [γ-^33P] phosphate from [γ-^33P]ATP to ITK during the autophosphorylation of ITK is measured by scintillation counting. Streptavidin-coated FlashPlate Plus™ 384 well microplates (PerkinElmer Life Sciences) are designed for in-plate radiometric assays. The interior of each well is permanently coated with a thin layer of scintillant and a covalently bound layer of Streptavidin. ITK is incubated with [γ-^33P]ATP, biotinylated anti-MBP antibody (Cell Signaling Technology™) and test compounds in a 384-well Streptavidin-coated FlashPlate. The biotinylated anti-MBP binds tightly to the MBP-tagged ITK and cross-links it to Streptavidin on the plate surface. Unreacted ^33P-ATP is washed away and ^33P-phosphorylated ITK is measured when the [γ-^33P] incorporated into ITK stimulates the scintillant on the well to emit light. Radioactivity is assessed in a Packard
TopCount scintillation counter. Reagents are pipetted and dispensed using Beckman Biomek robotic equipment. Test compounds (2 μl per well) are pre-diluted from 1 mM 100% dimethyl sulfoxide solutions into water containing 30% dimethyl sulfoxide to produce dose response curves (10 point curves from (final) 30 μM to ˜1 nM); all tests are performed in duplicate. Background binding is assessed by substituting the enzyme inhibitor EDTA (25 mM final concentration) for test compound and maximal binding is assessed by inclusion of assay buffer instead of compound. Test compounds are added to the wells first (2 μl) followed by 10 μl enzyme solution in assay buffer. After 30 minutes pre-incubation, all other reagents are added in a 10 μl volume. The final reagent concentrations/well are as follows: 20 nM enzyme, 0.25 μCi [γ-^33P]ATP, assay buffer: 20 mM HEPES (pH 7.5), 0.15 M NaCl, 3 mM MgCl2, 3 mM MnCl2, 0.01% Triton X-100, 1 mM DTT, 5% glycerol and 0.01% γ-globulin. The plate is incubated at room temperature (RT) for 60 minutes for the kinase reaction. The reaction is stopped with 20 μl of 50 mM EDTA and the biotinylated anti-MBP is allowed to bind to the ITK and the Streptavidin for a further 60 minutes at RT. The unbound reagents are washed away with 2×100 μl phosphate-buffered saline (PBS). Radioactivity is measured for 45 sec/well.

## COc1ccc2[nH]c(-c3n[nH]c4ccsc34)cc2n1 [Example 60, 5-Methoxy-2-(1H-thieno[3,2-c]pyrazol-3-yl)-1H-pyrrolo[3,2-b]pyridine]
[1]
  pIC50: 6.65
other
  melting point: 234 to 236 °C
